Reference: patent publication US7405235B2, “Transcription factor modulating compounds and methods of use thereof” (Paratek Pharmaceuticals, Inc., priority 2001, dated 2008)

Target: MarA (Escherichia coli, UniProt P0ACH5)
Assay: MarA-activated selective marker (ccdB) cell survival assay, Example 2
Type: cell-based
Design: key: * indicates good inhibition of MarA; ** indicates very good inhibition of MarA
Settings: inhibition of MarA: cell survival under conditions of MarA expression (ccdB under MarA-activated promoter)
Excerpt: In the absence of Mar A, the expression of the selective marker would be silent. For example, in the case of regulation of the cytotoxic gene ccdB, the gene would be silent and the cells would survive. Synthesis of MarA from an inducible plasmid in a suitable host would result in the activation of the MarA responsive activatable promoter and expression of the selective marker. In the case of ccdB, the gene would be expressed and result in cell death. Compounds that inhibit MarA would be identified as those that permit cell survival under conditions of MarA expression.
In the absence of MarA, the expression of the selective marker is silent and cells survive. Synthesis of MarA from an inducible plasmid in a bacterial or yeast cell leads to the activation of the inaA promoter, expression of ccdB, and subsequently results in cell death. Compounds that inhibit MarA are those that permit cell survival under conditions of MarA expression. In Table 4, * indicates good inhibition of MarA and ** indicates very good inhibition of MarA.

Chain of MarA (P0ACH5 whole entry, looked up): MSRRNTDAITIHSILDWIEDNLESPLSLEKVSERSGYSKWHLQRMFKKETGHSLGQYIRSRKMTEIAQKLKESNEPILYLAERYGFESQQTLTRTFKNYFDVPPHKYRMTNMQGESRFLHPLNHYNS

SMILES | MarA inhibition class
CCOC(=O)C1=C(C)N=c2sc(=Cc3ccc(-c4ccc(C)c([N+](=O)[O-])c4)o3)c(=O)n2C1c1ccc(N(C)C)cc1 (centres unmarked) [X, 5-(4-Dimethylamino-phenyl)-7-methyl-2-[5-(4-methyl-3-nitro-phenyl)-furan-2-ylmethylene]-3-oxo-2,3-dihydro-5H-thiazolo[3,2-a]pyrimidine-6-carboxylicacid ethyl ester] | **
O=C1C=Cc2ccccc2/C1=N/Oc1ccc2noc3c2c1C(=O)c1ccccc1-3 [Z, [1,2]Naphthoquinone 1-[O-(6-oxo-6H-anthra[1,9-cd]isoxazol-5-yl)-oxime]] | *
